# According to publication PMC4807533, “Specific tracking of xylan using fluorescent-tagged carbohydrate-binding module 15 as molecular probe” (Biotechnology for Biofuels, 2016):
# Where two headings read alike, the source gives them in different places.
# Target: T1, OC15 (mOrange2-CBM15 fusion probe) (Cellvibrio japonicus, UniProt Q59675)
# T1 construct: gene xyn10C; CBM15 domain of xylanase Xyn10C, C-terminal; N-terminal His6-mOrange2 reporter, tags kept; single Gly linker; synthetic gene, pET11a, E. coli BL21-Gold(DE3)pLysS; primers imply CBM15 begins VAAS and ends at stop after EAYSAN
# T1 sequence (Q59675 86-247): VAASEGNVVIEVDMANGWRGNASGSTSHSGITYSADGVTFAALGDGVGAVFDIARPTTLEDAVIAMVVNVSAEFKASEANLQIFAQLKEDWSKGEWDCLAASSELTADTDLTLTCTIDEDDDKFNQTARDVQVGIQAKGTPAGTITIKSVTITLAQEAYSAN
# Assay: isothermal titration calorimetry
# Assay type: binding
# Settings: 20 mM Tris-HCl pH 7.5, 20 mM NaCl, 5 mM CaCl2, 25 °C
# Source text: isothermal titration calorimetry on OC15 (mOrange2-CBM15 fusion probe)
Structure (SMILES),"Kd (cellohexaose of 90 % purity, read-out: K a × 10^3 (M^-1) (converted))","Kd (cellohexaose of 90 % purity, read-out: K d)",Kd (read-out: K a × 10^3 (M^-1) (converted)),Kd (read-out: K d)
OC[C@H]1O[C@@H](O[C@H]2[C@H](O)[C@@H](O)[C@H](O[C@H]3[C@H](O)[C@@H](O)[C@H](O[C@H]4[C@H](O)[C@@H](O)[C@H](O[C@H]5[C@H](O)[C@@H](O)[C@H](O[C@H]6[C@H](O)[C@@H](O)C(O)O[C@@H]6CO)O[C@@H]5CO)O[C@@H]4CO)O[C@@H]3CO)O[C@@H]2CO)[C@H](O)[C@@H](O)[C@@H]1O (stereo partly shown) [cellohexaose],476 µM,479 µM,,
OC1OC[C@@H](O[C@@H]2OC[C@@H](O[C@@H]3OC[C@@H](O[C@@H]4OC[C@@H](O[C@@H]5OC[C@@H](O[C@@H]6OC[C@@H](O)[C@H](O)[C@H]6O)[C@H](O)[C@H]5O)[C@H](O)[C@H]4O)[C@H](O)[C@H]3O)[C@H](O)[C@H]2O)[C@H](O)[C@H]1O (stereo partly shown) [xylohexaose],,,29.4 µM,29.4 µM
